Laboratory results reported in US9676758B2, “1-heteroaryl-indoline-4-carboxamides as modulators of GPR52 useful for the treatment or prevention of disorders related thereto” (Arena Pharmaceuticals, Inc., priority 2015, dated 2017).

These compounds were tested against T1, recombinant GPR52 (Homo sapiens, UniProt Q9Y2T5) (assay: HTRF cAMP assay for direct cAMP measurement). Details: mean EC50; CHO-K1 or HEK293 cells stably expressing recombinant GPR52.
T1 construct: expressed in transfected cells
Type: cell-based
Experimental: HTRF cAMP assays were performed using commercially available assay kits according to the manufacturer's instructions (cAMP Dynamic 2 Assay Kit; #62AM4PEJ, Cisbio Bioassays, Bedford, Mass.). CHO-K1 or HEK293 cells stably expressing recombinant GPR52 were harvested and resuspended in assay buffer (PBS containing 0.5 mM IBMX and 0.1% BSA) at a density of 1.2×10^6 cells per mL. […] Test compounds were solubilized and serially diluted in DMSO using 5-fold dilutions to generate 10-point dose response curves. These serially diluted samples were then further diluted in PBS to achieve a 2× stock. The diluted compounds were transferred to triplicate assay plates (5 μL per well to achieve the 1× final assay concentration). A positive control was included in each assay run. After one-hour incubation at room temperature, 5 μL of cAMP D2 reagent diluted in lysis buffer was added to each well, followed by 5 μL of cryptate reagent. Plates were then incubated at room temperature for one hour prior to reading. Time-resolved fluorescence measurements were collected on an HTRF-capable plate reader (e.g., EnVision® (PerkinElmer, Waltham, Mass.) or PHERAstar (BMG LABTECH, Cary, N.C.)). Counts from the plate reader were fit to the cAMP standard curve included on each plate to determine the amount of cAMP in each test well. Dose-response curves were generated from the cAMP data and analyzed using a nonlinear least squares curve-fitting program to obtain EC50 values.

T1 sequence (Q9Y2T5 whole entry): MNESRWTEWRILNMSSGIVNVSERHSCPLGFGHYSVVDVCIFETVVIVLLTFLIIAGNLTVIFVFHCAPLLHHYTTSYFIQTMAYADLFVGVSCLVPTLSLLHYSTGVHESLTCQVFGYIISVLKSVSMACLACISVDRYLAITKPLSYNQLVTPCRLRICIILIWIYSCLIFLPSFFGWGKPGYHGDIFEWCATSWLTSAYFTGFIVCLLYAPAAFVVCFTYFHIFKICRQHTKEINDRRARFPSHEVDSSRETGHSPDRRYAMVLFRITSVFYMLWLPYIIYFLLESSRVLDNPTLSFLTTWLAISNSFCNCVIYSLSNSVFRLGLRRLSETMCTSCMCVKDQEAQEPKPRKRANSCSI

SMILES	EC50 [nM]
COc1ccc(Cc2ccnc(N3CCc4c(C(=O)NCCOCCO)cccc43)c2)cc1F [Compound 205, 1-(4-(3-fluoro-4-methoxybenzyl)pyridin-2-yl)-N-(2-(2-hydroxyethoxy)ethyl)indoline-4-carboxamide]	8.56
O=C(N[C@H]1CCOC1)c1cccc2c1CCN2c1cccc(Cc2cccc(C(F)(F)F)c2)n1 [Compound 2, (S)-N-(Tetrahydrofuran-3-yl)-1-(6-(3-(trifluoromethyl)benzyl)pyridin-2-yl)indoline-4-carboxamide]	106
O=C(N[C@H]1CCOC1)c1cccc2c1CCN2c1cncc(Cc2cccc(C(F)(F)F)c2)c1 [Compound 7, (S)-N-(Tetrahydrofuran-3-yl)-1-(5-(3-(trifluoromethyl)benzyl)pyridin-3-yl)indoline-4-carboxamide]	5.21
O=C(N[C@@H]1CCOC1=O)c1cccc2c1CCN2c1cc(Cc2cc(F)c(F)c(F)c2)ccn1 [Compound 135, (R)-N-(2-Oxotetrahydrofuran-3-yl)-1-(4-(3,4,5-trifluorobenzyl)pyridin-2-yl)indoline-4-carboxamide]	142
N#Cc1cc(Cc2ccnc(N3CCc4c(C(N)=O)cccc43)c2)ccc1F [Compound 60, 1-(4-(3-Cyano-4-fluorobenzyl)pyridin-2-yl)indoline-4-carboxamide]	11.7
NC(=O)c1cccc2c1CCN2c1cc(Cc2cc3ccccc3o2)ccn1 [Compound 119, 1-(4-(Benzofuran-2-ylmethyl)pyridin-2-yl)indoline-4-carboxamide]	38.7
NC(=O)c1cccc2c1CCN2c1cc(Cc2ccc(O)c(F)c2)ccn1 [Compound 97, 1-(4-(3-Fluoro-4-hydroxybenzyl)pyridin-2-yl)indoline-4-carboxamide]	35.9
CNC(=O)c1cc(Cc2ccnc(N3CCc4c(C(N)=O)cccc43)c2)ccc1F [Compound 59, 1-(4-(4-Fluoro-3-(methylcarbamoyl)benzyl)pyridin-2-yl)indoline-4-carboxamide]	223
O=C(NCCN1CCNC1=O)c1cccc2c1CCN2c1cc(Cc2cc(F)c(F)c(F)c2)ccn1 [Compound 133, N-(2-(2-Oxoimidazolidin-1-yl)ethyl)-1-(4-(3,4,5-trifluorobenzyl)pyridin-2-yl)indoline-4-carboxamide]	18.3
O=C(NCCO)c1cccc2c1CCN2c1cncc(Cc2cccc(C(F)(F)F)c2)n1 [Compound 38, N-(2-Hydroxyethyl)-1-(6-(3-(trifluoromethyl)benzyl)pyrazin-2-yl)indoline-4-carboxamide]	601
CC(=O)c1ccc(Cc2ccnc(N3CCc4c(C(N)=O)cccc43)c2)cc1 [Compound 55, 1-(4-(4-Acetylbenzyl)pyridin-2-yl)indoline-4-carboxamide]	16
CNC(=O)CCNC(=O)c1cccc2c1CCN2c1cc(Cc2cc(F)c(F)c(F)c2)ccn1 [Compound 172]	18
CNC(=O)c1cccc2c1CCN2c1cncc(Cc2cccc(C(F)(F)F)c2)c1 [Compound 9, N-Methyl-1-(5-(3-(trifluoromethyl)benzyl)pyridin-3-yl)indoline-4-carboxamide]	7.45
COC[C@@H](O)CNC(=O)c1cccc2c1CCN2c1cc(Cc2cc(F)cc(Cl)c2)ccn1 [Compound 168, (S)-1-(4-(3-Chloro-5-fluorobenzyl)pyridin-2-yl)-N-(2-hydroxy-3-methoxypropyl)indoline-4-carboxamide]	31.6
O=C(NCCO)c1cccc2c1CCN2c1ccnc(Cc2cc(F)cc(Cl)c2)c1 [Compound 187, 1-(2-(3-Chloro-5-fluorobenzyl)pyridin-4-yl)-N-(2-hydroxyethyl)indoline-4-carboxamide]	12.9
O=C(NC[C@H](O)CO)c1cccc2c1CCN2c1cc(Cc2cc(F)cc(C(F)(F)F)c2)ccn1 [Compound 31, (S)-N-(2,3-Dihydroxypropyl)-1-(4-(3-fluoro-5-(trifluoromethyl)benzyl)pyridin-2-yl)indoline-4-carboxamide]	72
COC[C@@H](O)CNC(=O)c1cccc2c1CCN2c1ccnc(Cc2cc(F)c(F)c(F)c2)c1 [Compound 189, (S)-N-(2-Hydroxy-3-methoxypropyl)-1-(2-(3,4,5-trifluorobenzyl)pyridin-4-yl)indoline-4-carboxamide]	21.9
COc1ccc(Cc2ccnc(N3CCc4c(C(=O)NCCF)cccc43)c2)cc1F [Compound 203, 1-(4-(3-fluoro-4-methoxybenzyl)pyridin-2-yl)-N-(2-fluoroethyl)indoline-4-carboxamide]	5.54

SMILES	EC50 [nM]
NC(=O)c1cccc2c1CCN2c1cc(Sc2cccc(C(F)(F)F)c2)ccn1 [Compound 30, 1-(4-(3-(Trifluoromethyl)phenylthio)pyridin-2-yl)indoline-4-carboxamide]	428
NC(=O)c1cccc2c1CCN2c1cc(Cc2cnc3ccccc3c2)ccn1 [Compound 111, 1-(4-(Quinolin-3-ylmethyl)pyridin-2-yl)indoline-4-carboxamide]	61
Cc1cc(Cc2cccc(C(F)(F)F)c2)cc(N2CCc3c(C(N)=O)cccc32)n1 [Compound 17, 1-(6-Methyl-4-(3-(trifluoromethyl)benzyl)pyridin-2-yl)indoline-4-carboxamide]	80.4
Cc1cc(Cc2ccnc(N3CCc4c(C(N)=O)cccc43)c2)cnc1F [Compound 50, 1-(4-((6-Fluoro-5-methylpyridin-3-yl)methyl)pyridin-2-yl)indoline-4-carboxamide]	17.4
O=C(NCC1(CO)COC1)c1c(F)ccc2c1CCN2c1cc(Cc2cc(F)c(F)c(F)c2)ccn1 [Compound 155, 5-Fluoro-N-((3-(hydroxymethyl)oxetan-3-yl)methyl)-1-(4-(3,4,5-trifluorobenzyl)pyridin-2-yl)indoline-4-carboxamide]	55.9
O=C(N[C@H]1CCOC1)c1cccc2c1CCN2c1cc(Cc2cccc(C(F)(F)F)c2)ccn1 [Compound 4, (S)-N-(Tetrahydrofuran-3-yl)-1-(4-(3-(trifluoromethyl)benzyl)pyridin-2-yl)indoline-4-carboxamide]	12.3
CN(C)CC(O)CNC(=O)c1cccc2c1CCN2c1cc(Cc2cc(F)c(F)c(F)c2)ccn1 (stereo not drawn) [Compound 158, N-(3-(Dimethylamino)-2-hydroxypropyl)-1-(4-(3,4,5-trifluorobenzyl)pyridin-2-yl)indoline-4-carboxamide]	6.76
NC(=O)c1cccc2c1CCN2c1cc(Cc2ccc(F)c(CO)c2)ccn1 [Compound 63, 1-(4-(4-Fluoro-3-(hydroxymethyl)benzyl)pyridin-2-yl)indoline-4-carboxamide]	36.5
CC(=O)Oc1cccc(Cc2ccnc(N3CCc4c(C(N)=O)cccc43)c2)c1 [Compound 102, 3-((2-(4-Carbamoylindolin-1-yl)pyridin-4-yl)methyl)phenyl acetate]	21.4
O=C(NCCO)c1cccc2c1CCN2c1cc(Oc2cc(F)cc(C(F)(F)F)c2)ccn1 [Compound 23, 1-(4-(3-Fluoro-5-(trifluoromethyl)phenoxy)pyridin-2-yl)-N-(2-hydroxyethyl)indoline-4-carboxamide]	98.4
O=C(NC[C@H](O)c1cccnc1)c1cccc2c1CCN2c1cc(Cc2cc(F)c(F)c(F)c2)ccn1 [Compound 148, (R)-N-(2-Hydroxy-2-(pyridin-3-yl)ethyl)-1-(4-(3,4,5-trifluorobenzyl)pyridin-2-yl)indoline-4-carboxamide]	37
O=C(Nc1cnn(CCO)c1)c1cccc2c1CCN2c1cc(Cc2cc(F)c(F)c(F)c2)ccn1 [Compound 118, N-(1-(2-Hydroxyethyl)-1H-pyrazol-4-yl)-1-(4-(3,4,5-trifluorobenzyl)pyridin-2-yl)indoline-4-carboxamide]	9.74
O=C(NC[C@H](O)C(F)(F)F)c1cccc2c1CCN2c1cc(Cc2cc(F)c(F)c(F)c2)ccn1 [Compound 160, (S)-N-(3,3,3-Trifluoro-2-hydroxypropyl)-1-(4-(3,4,5-trifluorobenzyl)pyridin-2-yl)indoline-4-carboxamide]	292
CN(C)Cc1cccc(Cc2ccnc(N3CCc4c(C(N)=O)cccc43)c2)c1 [Compound 81, 1-(4-(3-((Dimethylamino)methyl)benzyl)pyridin-2-yl)indoline-4-carboxamide]	3750
CC(=O)c1cc(Cc2ccnc(N3CCc4c(C(=O)NCCO)cccc43)c2)ccc1F [Compound 77, 1-(4-(3-Acetyl-4-fluorobenzyl)pyridin-2-yl)-N-(2-hydroxyethyl)indoline-4-carboxamide]	10.7
NC(=O)c1cccc2c1CCN2c1cc(Cc2cccc(OC(F)(F)F)c2)ccn1 [Compound 64, 1-(4-(3-(Trifluoromethoxy)benzyl)pyridin-2-yl)indoline-4-carboxamide]	23.1
COc1ccc(Cc2ccnc(N3CCc4c(C(=O)NC5CCN(CCO)CC5)cccc43)c2)cc1F [Compound 91, 1-(4-(3-Fluoro-4-methoxybenzyl)pyridin-2-yl)-N-(1-(2-hydroxyethyl)piperidin-4-yl)indoline-4-carboxamide]	1.06
COCC(COC)NC(=O)c1cccc2c1CCN2c1cc(Cc2cc(F)c(F)c(F)c2)ccn1 [Compound 131, N-(1,3-Dimethoxypropan-2-yl)-1-(4-(3,4,5-trifluorobenzyl)pyridin-2-yl)indoline-4-carboxamide]	307
